Results published in US7598067B2, “PDEs and uses thereof” (priority 2000, dated 2009).
“And” between values parts separate entries of the source, which are not always exact repeats. Identical values can stand only once. Like-named read-outs stand apart in the source and are kept apart here.

Columns and labels:
TbPDE2B = TbPDE2B (Trypanosoma brucei, UniProt Q9GQU6); test: Phosphodiesterase assay, recombinant TbPDE2B expressed in HEK 293 cells; format: biochemical; details: for inhibition of recombinant TbPDE2B, in words: 1 μM [3H] cAMP, cGMP up to 200 μM
Protocol: Expression of T. brucei PDE. The ORF sequence for T. brucei PDE was subcloned into the pcDNA 3.1-TOPO vector (Invitrogen) according to the manual (Eukaryotic TOPO TA Cloning, version C) and plasmid DNA purified as described above. Human embryonic kidney 293 (HEK 293) cells were transfected with 12 μg of DNA in 60 μl of GenePORTER Transfection Reagent (Gene Therapy Systems, San Diego, Calif.) in 100-mm dishes and kept at 37° C. in 5% CO2 for 24 h. After this period fresh medium was added, and incubated under the same conditions for an additional 24 h. The same amount of pcDNA vector containing the sequence for the Green Fluorescent Protein (GFP) was transfected under identical conditions as a positive control for expression and as a negative control for PDE activity. Two plates were harvested at a time and homogenized with 1 ml of homogenization buffer containing 40 mM Tris-HCl, pH 7.5; 15 mM benzamidine; 15 mM 2-mercaptoethanol; 1 μg/ml pepstatin A; 1 μg/ml leupeptin and 5 mM EDTA. The cell suspension was immediately subjected to sonication (3×5 s) on ice. One volume of glycerol and 1 mg/ml of bovine serum albumin were added immediately to the homogenate.
Phosphodiesterase assay. […]

PDE 6 = details: read-out: PDE Selectivity (IC50); cited from earlier work
[1] = test system: total PDE activity of trypanosomal cell extracts; test: Total PDE activity in trypanosomal cell extracts; format: biochemical, Trypanosoma brucei
Text: Chemical validation of the TbPDE2 family as a potential drug target. One of the novel PDEs of the invention, TbPDE2A, was expressed as a recombinant protein and was characterized in detail (see above). […].

PDE 8 = details: read-out: PDE Selectivity (IC50); cited from earlier work
TbPDE2A [2] = target: T1, TbPDE2A (Trypanosoma brucei, UniProt Q9GTN9); test: Phosphodiesterase assay, recombinant TbPDE2A in yeast lysates; format: biochemical
Protocol: Yeast cell lysis. Yeast cells grown to mid- to end-log phase in SC-leu medium were collected, resuspended quickly in an original volume of prewarmed YPD medium and incubated for an additional 3 h at 30° C. in order to maximize protein expression. Cells were then harvested, washed once in water and once in HBBB buffer (Hank's balanced salt solution, containing 50 mM HEPES, pH 7.5). The washed cell pellet was suspended in an equal volume of HBB containing a protease inhibitor cocktail (Complete™, Roche Molecular Biochemicals). […] The cell lysate was clarified by centrifugation for 15 min at 15,000×g.
Phosphodiesterase Assay. […] […] Incubation was at 30° C. for 20 min. […] The precipitates were filtered through GF-C glass fiber fitters and filters were washed 3 times with ice-cold 1 mM NaOH/100 mM NaCl and were then dried and counted in liquid scintillation fluid (4 g/I omnifluor in toluene). All assays were carried out in triplicates and with three independent enzyme preparations. Controls for the efficiency of precipitation of cAMP and of AMP were always included. When assaying yeast cell extracts, control lysates from the PDE deletion strains transfected with empty vector was used as a background control. […] Inhibitors were dissolved in DMSO or ethanol, and the final concentration of the solvent never exceeded 1% in the assays reaction. Incubation times and enzyme concentrations were always adjusted so that less than 30% of the input substrate was hydrolyzed (2-5 μg total protein/100 μl assay). IC50 values were calculated by curve fitting on a four parameter dose-response model with variable slope, using the Prism software package of Graph Pad Inc., San Diego, Calif.

PDE 10 = details: read-out: PDE Selectivity (IC50); cited from earlier work
PDE 3 = details: read-out: PDE Selectivity (IC50); cited from earlier work
human PDE8A [3] = target: T2, human PDE8A (Homo sapiens, UniProt O60658); test: Activity of sf9 expressed PDE8A, undigested or trypsin digested; format: biochemical; design: human PDE8A was expressed in Sf9 cells (ATCC, Manassas, Va.); This PDE8A was already N-terminally truncated at position 285; fused on or other part: N-terminal FLAG tag ([…]...) on the undigested construct; details: trypsin digested PDE8A; at 1 μM IBMX
Protocol: (§1) Briefly, human PDE8A was expressed in Sf9 cells (ATCC, Manassas, Va.). […] The supernatant (10^6 cells/digestion) was isolated and digested with the indicated amounts of trypsin at the indicated times at 30° C. The digestion was stopped with a 100-fold excess of soybean trypsin inhibitor. The activity was assayed with 1 μM cAMP. […] The digested PDE8A was analyzed by Western blot analysis using a peptide antibody specific to the C-terminus (PIL13) or the P4G7 monoclonal antibody.
Target sequence in this assay (O60658 whole entry, the tested form may be a part): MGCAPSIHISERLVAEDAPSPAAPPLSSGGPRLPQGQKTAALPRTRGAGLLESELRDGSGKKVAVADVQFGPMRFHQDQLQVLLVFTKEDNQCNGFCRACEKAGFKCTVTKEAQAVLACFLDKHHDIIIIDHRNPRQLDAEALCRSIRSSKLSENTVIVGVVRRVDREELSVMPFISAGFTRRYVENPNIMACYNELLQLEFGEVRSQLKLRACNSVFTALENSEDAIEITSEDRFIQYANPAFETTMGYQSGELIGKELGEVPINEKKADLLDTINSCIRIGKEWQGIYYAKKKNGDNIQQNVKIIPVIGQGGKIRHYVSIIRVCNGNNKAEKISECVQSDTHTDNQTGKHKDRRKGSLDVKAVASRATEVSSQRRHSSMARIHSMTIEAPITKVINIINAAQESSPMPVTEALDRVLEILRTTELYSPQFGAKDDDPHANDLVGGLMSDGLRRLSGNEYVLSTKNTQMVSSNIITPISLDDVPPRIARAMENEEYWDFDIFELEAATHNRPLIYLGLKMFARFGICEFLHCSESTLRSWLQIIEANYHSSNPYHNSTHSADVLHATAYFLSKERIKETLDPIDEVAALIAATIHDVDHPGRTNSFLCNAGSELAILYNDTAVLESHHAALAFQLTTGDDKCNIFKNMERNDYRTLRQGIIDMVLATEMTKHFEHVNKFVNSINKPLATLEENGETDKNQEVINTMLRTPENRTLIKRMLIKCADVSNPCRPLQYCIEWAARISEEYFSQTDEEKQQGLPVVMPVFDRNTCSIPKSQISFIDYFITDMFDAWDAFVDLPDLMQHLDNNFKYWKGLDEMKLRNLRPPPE

PDEs (Non-selective) = details: read-out: PDE Selectivity (IC50); cited from earlier work
PDE8A [4] = test: Activity of immunoprecipitated PDE8A from Hut78 or CD4+ cells; format: biochemical, human
Protocol: Hut78 or CD4^+ cells were harvested at various points after stimulation with CD3 and CD28 antibodies. Cells were resuspended in IP buffer (20 mM Tris pH7.5, 100 mM NaCl, 1 mM benzamidine, 1 μg/mL leupeptin, 1 μg/mL pepstatin, 50 mM NaF, 2 mM EDTA) and sonicated. The cells were centrifuged at 15000×g for 10 minutes. The supernatant was precleared for 2 hours with 0.5 μg mouse IgG and 10 μL protein-G agarose (Santa Cruz Biotechnology, Santa Cruz, Calif.). PDE8A monoclonal antibody was preloaded onto 10 μL protein G-agarose and added to the precleared supernatant. The immunoprecipitations were agitated overnight at 4° C. and the beads washed three times with IP buffer containing 1M NaCl followed by one wash with IP buffer.

[5] = test system: PDE8A and PDE7A from hut78 cells; test: PDE activity of monoQ HPLC fractions of hut78 cells, low Km peak; format: biochemical, human; details: 0.01 μM cAMP; 10 μM rolipram or 100 μM IBMX
Protocol: (§2) Since pure CD4^+ T cells can only be obtained in limited quantities, a human CD4^+ T cell line, hut78, (ATCC, Manassas, Va.), was used to study the activity of PDE8A. Hut78 cells (2×10^8) were resuspended in 20 mM Tris pH 7.5 buffer containing protease inhibitors (Boehringer Mannheim, Indianapolis, Ind.) and sonicated. The supernatant was removed after centrifugation at 15000×g for 10 minutes and applied to a Mono Q column attached to a Rainin Dynamax HPLC system (Ameryville, Calif.). A NaCl gradient (0-0.8M) was passed through the column and 250 uL fractions were collected. The fractions were assayed for activity using either 1 μM or 0.01 μM cAMP as substrate and the indicated concentration of inhibitor (FIG. 5). Western blot analysis was also performed (10 μL/well) using PDE7A or 8A antibodies.

PDE8A [6] = details: Fisher et al. 1998; cited from earlier work
PDE8A [7] = test: PDE activity of monoQ HPLC fractions of hut78 cells containing only PDE8A; format: biochemical, human; details: 0.01 μM cAMP
Protocol: as §2

human PDE8A [8] = target: T2, human PDE8A; test: Activity of sf9 expressed PDE8A, undigested or trypsin digested; format: biochemical; design: made in house; host or cells: Sf9 insect cells (supernatant of cell extract); details: undigested PDE8A
Protocol: as §1
Target sequence in this assay (O60658 285-829): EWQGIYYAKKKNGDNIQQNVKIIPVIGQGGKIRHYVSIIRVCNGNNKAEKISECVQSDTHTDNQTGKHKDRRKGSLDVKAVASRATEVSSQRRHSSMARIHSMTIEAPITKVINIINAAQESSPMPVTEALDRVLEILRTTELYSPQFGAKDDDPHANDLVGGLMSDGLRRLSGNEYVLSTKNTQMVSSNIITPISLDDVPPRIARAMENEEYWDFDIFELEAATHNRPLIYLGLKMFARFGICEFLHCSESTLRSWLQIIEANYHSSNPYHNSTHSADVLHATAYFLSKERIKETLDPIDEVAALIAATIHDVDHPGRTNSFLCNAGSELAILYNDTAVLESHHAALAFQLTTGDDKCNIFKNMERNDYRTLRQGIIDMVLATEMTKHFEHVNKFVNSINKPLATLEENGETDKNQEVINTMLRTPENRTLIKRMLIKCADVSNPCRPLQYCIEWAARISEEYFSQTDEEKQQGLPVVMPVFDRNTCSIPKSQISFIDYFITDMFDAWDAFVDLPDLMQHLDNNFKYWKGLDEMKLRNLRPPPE

TbPDE2C = test: Recombinant TbPDE2C expressed in S. cerevisiae; format: biochemical, Trypanosoma brucei
Text: We also have expressed a second family member, TbPDE2C, as a recombinant protein in the yeast S. cerevisiae and have characterized it was previously done for TbPDE2A.

TbPDE2A [9] = target: T1, TbPDE2A; details: Table 2, from reference; cited from earlier work
[10] = full-size TbPDE2A, yeast lysates, 1 μM cAMP

T1 sequence (Q9GTN9 entry or part of it): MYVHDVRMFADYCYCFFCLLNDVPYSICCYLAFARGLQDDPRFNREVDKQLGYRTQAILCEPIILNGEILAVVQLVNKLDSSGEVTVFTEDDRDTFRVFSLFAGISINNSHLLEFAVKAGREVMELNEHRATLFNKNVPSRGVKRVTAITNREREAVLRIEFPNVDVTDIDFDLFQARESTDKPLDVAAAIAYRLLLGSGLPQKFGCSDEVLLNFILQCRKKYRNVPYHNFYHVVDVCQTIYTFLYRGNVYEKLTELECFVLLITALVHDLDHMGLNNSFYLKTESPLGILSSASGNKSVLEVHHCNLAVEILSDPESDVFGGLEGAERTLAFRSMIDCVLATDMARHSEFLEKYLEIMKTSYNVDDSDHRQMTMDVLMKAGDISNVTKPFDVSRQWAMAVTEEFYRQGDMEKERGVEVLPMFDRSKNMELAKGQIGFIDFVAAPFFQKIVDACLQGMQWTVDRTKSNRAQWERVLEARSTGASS
Chain of TbPDE2B (Q9GQU6 entry or part of it): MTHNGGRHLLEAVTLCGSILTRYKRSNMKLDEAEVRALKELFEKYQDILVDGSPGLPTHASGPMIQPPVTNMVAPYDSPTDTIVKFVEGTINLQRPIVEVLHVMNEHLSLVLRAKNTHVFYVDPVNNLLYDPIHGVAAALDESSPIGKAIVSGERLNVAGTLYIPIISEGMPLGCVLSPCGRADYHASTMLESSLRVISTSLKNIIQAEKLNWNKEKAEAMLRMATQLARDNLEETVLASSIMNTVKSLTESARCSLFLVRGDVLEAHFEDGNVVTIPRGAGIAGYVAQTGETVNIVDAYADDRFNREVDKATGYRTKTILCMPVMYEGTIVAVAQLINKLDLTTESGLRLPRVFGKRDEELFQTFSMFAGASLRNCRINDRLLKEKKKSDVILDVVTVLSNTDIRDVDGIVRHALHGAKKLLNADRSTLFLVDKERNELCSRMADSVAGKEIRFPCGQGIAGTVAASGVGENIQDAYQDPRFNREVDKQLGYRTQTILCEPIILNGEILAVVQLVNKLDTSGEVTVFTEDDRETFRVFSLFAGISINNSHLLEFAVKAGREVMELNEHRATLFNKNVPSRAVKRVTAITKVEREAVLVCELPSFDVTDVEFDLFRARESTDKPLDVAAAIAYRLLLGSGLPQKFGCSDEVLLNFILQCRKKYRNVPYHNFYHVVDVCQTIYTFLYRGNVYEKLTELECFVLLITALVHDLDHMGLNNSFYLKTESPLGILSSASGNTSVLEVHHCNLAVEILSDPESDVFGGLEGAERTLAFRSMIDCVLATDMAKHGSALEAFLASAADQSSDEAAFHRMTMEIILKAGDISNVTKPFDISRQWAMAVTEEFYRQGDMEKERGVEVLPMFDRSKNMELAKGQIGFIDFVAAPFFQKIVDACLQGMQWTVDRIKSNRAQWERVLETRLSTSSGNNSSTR

**Q.** For `OCCN(CCO)c1nc(N2CCCCC2)c2nc(N(CCO)CCO)nc(N3CCCCC3)c2n1` [Dipyridamole, dipyridamole], which IC50 (TbPDE2B) is on record?
**A.** 27 µM

**Q.** What about the IC50 (PDE 6) of the same molecule?
**A.** 0.38 µM

**Q.** What about the “total PDE activity” value [1] of the same molecule?
**A.** marked, if not complete, reduction

**Q.** And the IC50 (PDE 8)?
**A.** 4.5 µM

**Q.** And the IC50 (TbPDE2A [2]; [10])?
**A.** 5.8 µM and 5.9 µM

**Q.** And the “IC50 for TbPDE2A (μM)” value (TbPDE2A [2]; [10])?
**A.** low micromolar range

**Q.** What about the IC50 (PDE 10) of the same molecule?
**A.** 1.1 µM

**Q.** With `CSc1ccc(C(=O)c2[nH]c(=O)[nH]c2C)cc1` [Enoximone, enoximone] as the molecule, how does the IC50 (TbPDE2B) read?
**A.** > 100 µM

**Q.** And the “inhibition of recombinant TbPDE2B, in words” value (from here on “inhibition … in words”) (TbPDE2B)?
**A.** No IC50 could be obtained

**Q.** What about the IC50 (PDE 3) of the same molecule?
**A.** 1 µM

**Q.** With `CC(C)Cn1c(=O)n(C)c(=O)c2[nH]cnc21` [IBMX, 3-Isobutyl-1-methylxanthine] as the molecule, how does the IC50 (TbPDE2B) read?
**A.** > 1000 µM

**Q.** And the “inhibition … in words” value (TbPDE2B)?
**A.** extremely low sensitivity

**Q.** And the activity retained (human PDE8A [3])?
**A.** 40%

**Q.** And the IC50 (PDEs (Non-selective))?
**A.** 2 to 50 µM

**Q.** What about the “effectiveness on TbPDE2A, in words” value (TbPDE2A [2]) of the same molecule?
**A.** not effective

**Q.** And the “effect on TbPDE2A activity in initial screening” value (TbPDE2A [2]; 100 μM inhibitor, 1 μM cAMP, FIG. 26)?
**A.** ineffective

**Q.** And the IC50 (TbPDE2A [2]; [10])?
**A.** 545 µM

**Q.** And the “immunoprecipitated PDE8A activity from hut78 cells” value (PDE8A [4]; 100 μM IBMX, FIG. 6A)?
**A.** inhibited

**Q.** What about the “increase in immunoprecipitated PDE8A activity after activation” value (PDE8A [4]; CD4+ T cells) of the same molecule?
**A.** could be inhibited

**Q.** What about the “sensitivity of the PDE activity peak” value [5] of the same molecule?
**A.** sensitive

**Q.** What about the “sensitivity of recombinant expressed PDE8A” value (PDE8A [6]) of the same molecule?
**A.** resistant

**Q.** And the “activity of fractions that contained only PDE8A” value (PDE8A [7])?
**A.** inhibited

**Q.** And the “IBMX inhibition of undigested PDE8A” value (human PDE8A [8])?
**A.** resistant

**Q.** What about the “activity of undigested PDE8A” value (human PDE8A [8]; at 1 μM IBMX) of the same molecule?
**A.** unchanged

**Q.** Which “inhibition … in words” value (TbPDE2B) does the source give for `Nc1nc2c(ncn2[C@@H]2O[C@@H]3COP(=O)(O)O[C@H]3[C@H]2O)c(=O)[nH]1` [cGMP] here?
**A.** not stimulated or inhibited

**Q.** And the IC50 (TbPDE2B; Substrate concentration 1 μM [3H]-cAMP, read-out: TbPDE2B IC50 (μM) (n = 3))?
**A.** > 200 µM

**Q.** And the “effect on activity of TbPDE2C” value (TbPDE2C)?
**A.** does not affect the activity

**Q.** And the “cAMP hydrolysis by TbPDE2A in the presence of cGMP” value (TbPDE2A [2]; 100-fold excess of cGMP, full-size and truncated constructs)?
**A.** unaffected

**Q.** What about the IC50 (TbPDE2A [9]) of the same molecule?
**A.** > 100 µM
